{"source": "paper PMC11881577", "about": "“In vitro and in vivo activity of 1,2,3,4,6-O-pentagalloyl-glucose against Candida albicans” (Antimicrobial Agents and Chemotherapy, 2025)", "key": {"CaEno1": {"molecular_target": "T1, CaEno1 (Candida albicans, UniProt P30575)", "T1 construct": "gene ENO1; recombinant, 6 × His tag, expressed in E. coli BL21(DE3)", "T1 sequence (P30575 whole entry)": "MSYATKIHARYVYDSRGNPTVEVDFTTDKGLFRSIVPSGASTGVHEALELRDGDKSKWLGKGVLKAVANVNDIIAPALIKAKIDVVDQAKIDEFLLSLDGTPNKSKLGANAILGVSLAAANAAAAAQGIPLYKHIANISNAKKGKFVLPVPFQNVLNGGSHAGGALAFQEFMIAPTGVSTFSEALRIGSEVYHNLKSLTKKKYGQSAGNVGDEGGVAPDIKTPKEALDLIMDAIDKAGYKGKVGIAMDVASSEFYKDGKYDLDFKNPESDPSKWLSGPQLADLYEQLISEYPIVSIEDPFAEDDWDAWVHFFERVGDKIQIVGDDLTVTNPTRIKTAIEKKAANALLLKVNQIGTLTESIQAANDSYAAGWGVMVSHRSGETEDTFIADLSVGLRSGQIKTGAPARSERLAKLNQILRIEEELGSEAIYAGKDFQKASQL", "test": "spectrophotometric enolase assay (PEP formation at […] nm) on purified enzyme; supported by DARTS", "assay_type": "biochemical"}, "hEno1": {"molecular_target": "T2, hEno1 (Homo sapiens, UniProt P06733)", "T2 construct": "gene ENO1; recombinant hEno1, expressed and purified using the same procedure as CaEno1", "T2 sequence (P06733 2-434)": "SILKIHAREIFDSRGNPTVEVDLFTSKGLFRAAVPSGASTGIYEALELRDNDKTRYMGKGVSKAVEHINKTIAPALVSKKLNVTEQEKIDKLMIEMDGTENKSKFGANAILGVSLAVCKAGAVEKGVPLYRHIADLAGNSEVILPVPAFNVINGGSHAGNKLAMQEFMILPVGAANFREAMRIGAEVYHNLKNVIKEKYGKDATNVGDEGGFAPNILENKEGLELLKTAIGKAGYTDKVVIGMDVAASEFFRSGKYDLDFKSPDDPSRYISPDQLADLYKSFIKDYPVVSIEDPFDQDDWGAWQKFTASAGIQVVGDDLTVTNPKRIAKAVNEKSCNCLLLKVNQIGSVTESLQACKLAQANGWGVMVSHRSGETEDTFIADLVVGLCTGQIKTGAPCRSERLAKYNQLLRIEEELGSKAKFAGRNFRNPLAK", "test": "spectrophotometric enolase assay (PEP formation at […] nm) on purified enzyme", "assay_type": "biochemical"}}, "data": [{"compound": "O=C(OC[C@H]1O[C@@H](OC(=O)c2cc(O)c(O)c(O)c2)[C@H](OC(=O)c2cc(O)c(O)c(O)c2)[C@@H](OC(=O)c2cc(O)c(O)c(O)c2)[C@@H]1OC(=O)c1cc(O)c(O)c(O)c1)c1cc(O)c(O)c(O)c1", "note": "[1,2,3,4,6-O-pentagalloyl-glucose]", "values": [{"measurement": "Ki", "setting": "CaEno1", "result": "1100 ± 140", "unit": "nM"}, {"measurement": "IC50", "setting": "hEno1", "result": "1500 ± 270", "unit": "nM"}]}]}
